Laboratory results as given in patent US20090018134A1, “Compounds - 945” (AstraZeneca AB, priority 2007, published 2009).

Columns and labels:
[1] = target: T1, mTOR (Homo sapiens, UniProt P42345); assay: In Vitro mTOR Kinase Assay (Echo), Test (a)(ii); assay type: biochemical; settings: table of enzyme assay Test (a)(ii); read-out: Test (a)(ii) IC50
T1 construct: FLAG; made in house
Method in brief: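 Compounds were acoustically dispensed, then incubated with FLAG-tagged mTOR (1362-2549) for 2 hours at room temperature. Reactions were quenched with EDTA plus detection antibody and AlphaScreen beads and left overnight in the dark before reading. Loss of phospho-T389 signal gave IC50 values.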

[2] = target: T1, mTOR; assay: mTOR Kinase Assay (Echo); assay type: biochemical

T1 sequence (P42345 1362-2549): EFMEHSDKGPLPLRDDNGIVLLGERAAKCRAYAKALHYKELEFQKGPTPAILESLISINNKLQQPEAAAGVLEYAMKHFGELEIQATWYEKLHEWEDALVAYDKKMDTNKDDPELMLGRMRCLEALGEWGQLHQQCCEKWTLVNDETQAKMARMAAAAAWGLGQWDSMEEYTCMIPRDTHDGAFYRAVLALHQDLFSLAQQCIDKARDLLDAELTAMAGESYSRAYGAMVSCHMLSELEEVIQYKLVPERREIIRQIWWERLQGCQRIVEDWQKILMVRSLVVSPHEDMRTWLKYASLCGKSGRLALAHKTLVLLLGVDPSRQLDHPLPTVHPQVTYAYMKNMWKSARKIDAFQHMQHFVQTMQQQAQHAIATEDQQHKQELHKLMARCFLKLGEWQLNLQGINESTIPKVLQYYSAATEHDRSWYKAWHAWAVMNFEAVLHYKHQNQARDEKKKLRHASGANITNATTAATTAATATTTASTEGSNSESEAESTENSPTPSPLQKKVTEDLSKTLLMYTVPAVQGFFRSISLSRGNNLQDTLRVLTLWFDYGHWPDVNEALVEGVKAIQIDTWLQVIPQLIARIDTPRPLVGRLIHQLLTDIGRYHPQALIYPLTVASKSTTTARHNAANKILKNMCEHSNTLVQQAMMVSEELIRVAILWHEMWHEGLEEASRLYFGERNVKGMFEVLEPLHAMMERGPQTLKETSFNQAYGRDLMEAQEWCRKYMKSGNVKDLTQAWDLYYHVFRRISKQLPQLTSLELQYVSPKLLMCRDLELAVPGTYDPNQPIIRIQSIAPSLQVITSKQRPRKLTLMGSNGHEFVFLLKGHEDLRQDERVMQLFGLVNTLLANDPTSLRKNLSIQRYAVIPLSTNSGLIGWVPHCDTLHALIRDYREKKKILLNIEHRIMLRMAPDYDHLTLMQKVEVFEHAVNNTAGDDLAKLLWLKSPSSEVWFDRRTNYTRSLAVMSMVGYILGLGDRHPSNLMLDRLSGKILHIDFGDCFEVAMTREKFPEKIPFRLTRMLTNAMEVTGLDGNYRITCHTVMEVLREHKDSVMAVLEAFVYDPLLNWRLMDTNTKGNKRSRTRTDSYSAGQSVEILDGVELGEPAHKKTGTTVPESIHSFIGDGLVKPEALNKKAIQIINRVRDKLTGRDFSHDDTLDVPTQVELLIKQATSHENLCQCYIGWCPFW

Structure (SMILES) | IC50 [1] | IC50 [2]
O=C(Nc1ccc(-c2nc(N3CCOCC3)cc(C3(S(=O)(=O)C4CC4)CC3)n2)cc1)NC1CCC1 [Example 13c, 3-cyclobutyl-1-[4-[4-(1-cyclopropylsulfonylcyclopropyl)-6-morpholin-4-ylpyrimidin-2-yl]phenyl]urea] | 1.73 nM | 2.4 nM
C[C@H]1COCCN1c1cc(C2(S(=O)(=O)C(C)(C)C)CC2)nc(-c2ccc(NC(=O)NC3CCC3)cc2)n1 [Example 18a, 1-[4-[4-(1-tert-butylsulfonylcyclopropyl)-6-[(3S)-3-methylmorpholin-4-yl]pyrimidin-2-yl]phenyl]-3-cyclobutylurea] | 7.14 nM | 9.67 nM
Cc1csc(S(=O)(=O)C2(c3cc(N4CCOC[C@@H]4C)nc(-c4ccc(NC(=O)NC(C)C)cc4)n3)CC2)n1 [Example 25d, 1-[4-[4-[(3S)-3-methylmorpholin-4-yl]-6-[1-[(4-methyl-1,3-thiazol-2-yl)sulfonyl]cyclopropyl]pyrimidin-2-yl]phenyl]-3-propan-2-ylurea] | 1.52 nM | 1.57 nM
Cc1csc(S(=O)(=O)C2(c3cc(N4CCOC[C@@H]4C)nc(-c4ccc(NC(=O)NCCO)cc4)n3)CC2)n1 [Example 25g, 3-(2-hydroxyethyl)-1-[4-[4-[(3S)-3-methylmorpholin-4-yl]-6-[1-[(4-methyl-1,3-thiazol-2-yl)sulfonyl]cyclopropyl]pyrimidin-2-yl]phenyl]urea] | 1.43 nM | 1.19 nM
C[C@H]1COCCN1c1cc(C2(S(=O)(=O)c3ccc(Cl)cc3)CC2)nc(-c2ccc(NC(=O)NC3CC3)cc2)n1 [Example 27, 1-[4-[4-[1-(4-Chlorophenyl)sulfonylcyclopropyl]-6-[(3S)-3-methylmorpholin-4-yl]pyrimidin-2-yl]phenyl]-3-cyclopropylurea] | 1.11 nM | 1.44 nM
CNC(=O)Nc1ccc(-c2nc(N3CCOC[C@@H]3C)cc(C3(S(=O)(=O)c4ccc(Cl)cc4)CC3)n2)cc1 [Example 27e, 1-[4-[4-[1-(4-chlorophenyl)sulfonylcyclopropyl]-6-[(3S)-3-methylmorpholin-4-yl]pyrimidin-2-yl]phenyl]-3-methylurea] | 0.351 nM | 0.719 nM
CCNC(=O)Nc1ccc(-c2nc(N3CCOC[C@@H]3C)cc(C3(S(=O)(=O)c4ccc(Cl)cc4)CC3)n2)cc1 [Example 27f, 3-[4-[4-[1-(4-chlorophenyl)sulfonylcyclopropyl]-6-[(3S)-3-methylmorpholin-4-yl]pyrimidin-2-yl]phenyl]-1-ethylurea] | 0.997 nM | 0.959 nM
C[C@H]1COCCN1c1cc(C2(S(=O)(=O)c3ccc(Cl)cc3)CC2)nc(-c2ccc(NC(=O)NCCN(C)C)cc2)n1 [Example 27g, 1-[4-[4-[1-(4-chlorophenyl)sulfonylcyclopropyl]-6-[(3S)-3-methylmorpholin-4-yl]pyrimidin-2-yl]phenyl]-3-(2-dimethylaminoethyl)urea] | 21.3 nM | 18.9 nM
C[C@H]1COCCN1c1cc(C2(S(=O)(=O)c3ccc(Cl)cc3)CC2)nc(-c2ccc(NC(=O)NCCO)cc2)n1 [Example 27h, 1-[4-[4-[1-(4-chlorophenyl)sulfonylcyclopropyl]-6-[(3S)-3-methylmorpholin-4-yl]pyrimidin-2-yl]phenyl]-3-(2-hydroxyethyl)urea] | 0.244 nM | 0.0856 nM
C[C@H]1COCCN1c1cc(C2(S(=O)(=O)c3ccccn3)CC2)nc(-c2ccc(NC(=O)NC3CC3)cc2)n1 [Example 28, 3-Cyclopropyl-1-[4-[4-[(3S)-3-methylmorpholin-4-yl]-6-(1-pyridin-2-ylsulfonylcyclopropyl)pyrimidin-2-yl]phenyl]urea] | 1.87 nM | 0.816 nM
C[C@H]1COCCN1c1cc(C2(S(=O)(=O)c3ccccn3)CC2)nc(-c2ccc(NC(=O)NCCO)cc2)n1 [Example 28g, 3-(2-hydroxyethyl)-1-[4-[4-[(3S)-3-methylmorpholin-4-yl]-6-(1-pyridin-2-ylsulfonylcyclopropyl)pyrimidin-2-yl]phenyl]urea] | 1.18 nM | 11.8 nM
C[C@H]1COCCN1c1cc(C2(S(=O)(=O)c3ccccn3)CCC2)nc(-c2ccc(NC(=O)Nc3cnn(C)c3)cc2)n1 [Example 36aj, 1-[4-[4-[(3S)-3-methylmorpholin-4-yl]-6-(1-pyridin-2-ylsulfonylcyclobutyl)pyrimidin-2-yl]phenyl]-3-(1-methylpyrazol-4-yl)urea] | 2.55 nM | 2.58 nM
O=C(Nc1ccc(-c2nc(N3CCOCC3)cc(C3(S(=O)(=O)c4ccc(F)cc4)CC3)n2)cc1)NC1CC1 [Example 36al, 3-cyclopropyl-1-[4-[4-[1-(4-fluorophenyl)sulfonylcyclopropyl]-6-morpholin-4-ylpyrimidin-2-yl]phenyl]urea] | 16.1 nM | 18.7 nM
N#CCCNC(=O)Nc1ccc(-c2nc(N3CCOCC3)cc(C3(S(=O)(=O)c4ccc(F)cc4)CC3)n2)cc1 [Example 36am, 3-(2-cyanoethyl)-1-[4-[4-[1-(4-fluorophenyl)sulfonylcyclopropyl]-6-morpholin-4-ylpyrimidin-2-yl]phenyl]urea] | 25.9 nM | 27.7 nM
C[C@H]1COCCN1c1cc(C2(S(=O)(=O)c3ccccn3)CC2)nc(-c2ccc(NC(=O)NC3(CO)CC3)cc2)n1 [Example 36cv, 3-[1-(hydroxymethyl)cyclopropyl]-1-[4-[4-[(3S)-3-methylmorpholin-4-yl]-6-(1-pyridin-2-ylsulfonylcyclopropyl)pyrimidin-2-yl]phenyl]urea] | – | 259 nM
C[C@H]1COCCN1c1cc(C2(S(=O)(=O)c3nccs3)CCC2)nc(-c2ccc(NC(=O)NCCCO)cc2)n1 [Example 98j, 3-(3-hydroxypropyl)-1-[4-[4-[(3S)-3-methylmorpholin-4-yl]-6-[1-(1,3-thiazol-2-ylsulfonyl)cyclobutyl]pyrimidin-2-yl]phenyl]urea] | 3.74 nM | –
C[C@H]1COCCN1c1cc(C2(S(=O)(=O)c3nccs3)CCC2)nc(-c2ccc(NC(=O)NCCO)cc2)n1 [Example 98k, 3-(2-hydroxyethyl)-1-[4-[4-[(3S)-3-methylmorpholin-4-yl]-6-[1-(1,3-thiazol-2-ylsulfonyl)cyclobutyl]pyrimidin-2-yl]phenyl]urea] | 2.46 nM | –
C[C@H](CO)NC(=O)Nc1ccc(-c2nc(N3CCOC[C@@H]3C)cc(C3(S(=O)(=O)c4nccs4)CCC3)n2)cc1 [Example 98l, 3-[(2R)-1-hydroxypropan-2-yl]-1-[4-[4-[(3S)-3-methylmorpholin-4-yl]-6-[1-(1,3-thiazol-2-ylsulfonyl)cyclobutyl]pyrimidin-2-yl]phenyl]urea] | 7.89 nM | –
CNC(=S)Nc1ccc(-c2nc(N3CCOC[C@@H]3C)cc(C3(S(=O)(=O)CCCO)CCC3)n2)cc1 [Example 99a, 1-[4-[4-[1-(3-hydroxypropylsulfonyl)cyclobutyl]-6-[(3S)-3-methylmorpholin-4-yl]pyrimidin-2-yl]phenyl]-3-methylthiourea] | 43.8 nM | –
C[C@H]1COCCN1c1cc(C2(S(=O)(=O)CCCO)CCC2)nc(-c2ccc(NC(=S)NC3CC3)cc2)n1 [Example 99b, 3-cyclopropyl-1-[4-[4-[1-(3-hydroxypropylsulfonyl)cyclobutyl]-6-[(3S)-3-methylmorpholin-4-yl]pyrimidin-2-yl]phenyl]thiourea] | 31.6 nM | –
C[C@H]1COCCN1c1cc(C2(S(=O)(=O)CCCO)CCC2)nc(-c2ccc(NC(=S)NCc3ncc[nH]3)cc2)n1 [Example 99c, 1-[4-[4-[1-(3-hydroxypropylsulfonyl)cyclobutyl]-6-[(3S)-3-methylmorpholin-4-yl]pyrimidin-2-yl]phenyl]-3-(1H-imidazol-2-ylmethyl)thiourea] | 239 nM | –
C[C@H]1COCCN1c1cc(C2(S(=O)(=O)CCCO)CCC2)nc(-c2ccc(NC(=S)NC(C)(C)CO)cc2)n1 [Example 99d, 3-(1-hydroxy-2-methylpropan-2-yl)-1-[4-[4-[1-(3-hydroxypropylsulfonyl)cyclobutyl]-6-[(3S)-3-methylmorpholin-4-yl]pyrimidin-2-yl]phenyl]thiourea] | 219 nM | –
CCNC(=S)Nc1ccc(-c2nc(N3CCOC[C@@H]3C)cc(C3(S(=O)(=O)CCCO)CCC3)n2)cc1 [Example 99e, 1-ethyl-3-[4-[4-[1-(3-hydroxypropylsulfonyl)cyclobutyl]-6-[(3S)-3-methylmorpholin-4-yl]pyrimidin-2-yl]phenyl]thiourea] | 31.7 nM | –
C[C@H]1COCCN1c1cc(C2(S(=O)(=O)CCCO)CCC2)nc(-c2ccc(NC(=S)NCCO)cc2)n1 [Example 99f, 3-(2-hydroxyethyl)-1-[4-[4-[1-(3-hydroxypropylsulfonyl)cyclobutyl]-6-[(3S)-3-methylmorpholin-4-yl]pyrimidin-2-yl]phenyl]thiourea] | 5.89 nM | –
C[C@H]1COCCN1c1cc(C2(S(=O)(=O)CCCO)CCC2)nc(-c2ccc(NC(=S)NCC(F)F)cc2)n1 [Example 99g, 3-(2,2-difluoroethyl)-1-[4-[4-[1-(3-hydroxypropylsulfonyl)cyclobutyl]-6-[(3S)-3-methylmorpholin-4-yl]pyrimidin-2-yl]phenyl]thiourea] | 15.2 nM | –
CCCNC(=S)Nc1ccc(-c2nc(N3CCOC[C@@H]3C)cc(C3(S(=O)(=O)CCCO)CCC3)n2)cc1 [Example 99h, 3-[4-[4-[1-(3-hydroxypropylsulfonyl)cyclobutyl]-6-[(3S)-3-methylmorpholin-4-yl]pyrimidin-2-yl]phenyl]-1-propylthiourea] | 78.2 nM | –
C[C@H]1COCCN1c1cc(C2(S(=O)(=O)CCCO)CCC2)nc(-c2ccc(NC(=S)NCCCO)cc2)n1 [Example 99i, 3-(3-hydroxypropyl)-1-[4-[4-[1-(3-hydroxypropylsulfonyl)cyclobutyl]-6-[(3S)-3-methylmorpholin-4-yl]pyrimidin-2-yl]phenyl]thiourea] | 59.4 nM | –
C[C@H]1COCCN1c1cc(C2(S(=O)(=O)CCCO)CC2)nc(-c2ccc(NC(=S)NCC(F)F)cc2)n1 [Example 99j, 3-(2,2-difluoroethyl)-1-[4-[4-[1-(3-hydroxypropylsulfonyl)cyclopropyl]-6-[(3S)-3-methylmorpholin-4-yl]pyrimidin-2-yl]phenyl]thiourea] | 12.4 nM | –
